# Measurements: patent publication US9744222B2, “Peptide for vaccine” (Circassia Limited, priority 2007, dated 2017)
# Where a SMILES comes first, the peptide text is derived from it.
# Experiment: Solubility pre-screen of peptides
# Conditions: pre-screened for solubility in an aqueous, acidic milieu; YES/NO
# Description: Methods The assay employed is a competitive MHC class II binding assay, wherein each peptide is analysed for its ability to displace a known control binder from each of the human MHC class II allotypes investigated.
# Also shown is the solubility status of the peptide at the highest concentrations in the aqueous solution of the binding assay. The value illustrates the lowest concentration at which an insoluble white precipitate is seen.
row,Compound,Solubility test
1,CC[C@H](C)[C@H](N)C(=O)N[C@@H](CC(=O)O)C(=O)N[C@@H](CC(C)C)C(=O)N[C@@H](CCCNC(=N)N)C(=O)N[C@@H](CCC(N)=O)C(=O)N[C@@H](CCSC)C(=O)N[C@@H](CCCNC(=N)N)C(=O)N[C@H](C(=O)N[C@H](C(=O)N[C@H](C(=O)N1CCC[C@H]1C(=O)N[C@H](C(=O)N[C@@H](CCCNC(=N)N)C(=O)O)[C@@H](C)CC)[C@@H](C)O)C(C)C)[C@@H](C)O [HDM01] (H-IDLRQMRTVTPIR-OH; N-terminus and C-terminus assumed),YES
2,CC[C@H](C)[C@H](NC(=O)[C@@H]1CCCN1C(=O)[C@@H](NC(=O)[C@@H](NC(=O)[C@@H](NC(=O)[C@@H](N)CCCNC(=N)N)[C@@H](C)O)C(C)C)[C@@H](C)O)C(=O)N[C@@H](CCCNC(=N)N)C(=O)N[C@@H](CCSC)C(=O)N[C@@H](CCC(N)=O)C(=O)NCC(=O)NCC(=O)N[C@@H](CS)C(=O)NCC(=O)O [HDM02] (H-RTVTPIRMQGGCG-OH; N-terminus and C-terminus assumed),YES
3,CC(C)C[C@H](NC(=O)[C@H](CC(=O)O)NC(=O)[C@H](CC(C)C)NC(=O)[C@H](CO)NC(=O)[C@H](CCC(N)=O)NC(=O)[C@H](CC(N)=O)NC(=O)[C@@H](N)CCCNC(=N)N)C(=O)N[C@@H](C)C(=O)N[C@@H](CCC(=O)O)C(=O)N[C@@H](CCC(N)=O)C(=O)N[C@@H](CCC(=O)O)C(=O)N[C@@H](CC(C)C)C(=O)N[C@H](C(=O)N[C@@H](CC(=O)O)C(=O)N[C@@H](CS)C(=O)N[C@@H](C)C(=O)N[C@@H](CO)C(=O)N[C@@H](CCC(N)=O)C(=O)N[C@@H](Cc1c[nH]cn1)C(=O)O)C(C)C [HDM03C] (H-RNQSLDLAEQELVDCASQH-OH; N-terminus and C-terminus assumed),YES
4,CC[C@H](C)[C@H](NC(=O)[C@H](Cc1ccc(O)cc1)NC(=O)[C@@H](N)CCC(=O)O)C(=O)N[C@@H](CCC(N)=O)C(=O)N[C@@H](Cc1c[nH]cn1)C(=O)N[C@@H](CC(N)=O)C(=O)NCC(=O)N[C@H](C(=O)N[C@H](C(=O)N[C@@H](CCC(N)=O)C(=O)N[C@@H](CCC(=O)O)C(=O)N[C@@H](CO)C(=O)N[C@@H](Cc1ccc(O)cc1)C(=O)O)C(C)C)C(C)C [HDM05] (H-EYIQHNGVVQESY-OH; N-terminus and C-terminus assumed),YES
5,CC(C)[C@H](NC(=O)[C@H](Cc1ccc(O)cc1)NC(=O)[C@@H](N)CCCNC(=N)N)C(=O)N[C@@H](C)C(=O)N[C@@H](CCCNC(=N)N)C(=O)N[C@@H](CCC(=O)O)C(=O)N[C@@H](CCC(N)=O)C(=O)N[C@@H](CO)C(=O)N[C@@H](CS)C(=O)N[C@@H](CCCNC(=N)N)C(=O)N[C@@H](CCCNC(=N)N)C(=O)N1CCC[C@H]1C(=O)N[C@@H](CC(N)=O)C(=O)O [HDM06] (H-RYVAREQSCRRPN-OH; N-terminus and C-terminus assumed),YES
6,CC[C@H](C)[C@H](NC(=O)[C@H](CCCCN)NC(=O)[C@H](CC(N)=O)NC(=O)[C@@H](NC(=O)[C@H](CC(N)=O)NC(=O)[C@@H]1CCCN1)C(C)C)C(=O)N[C@@H](CCCNC(=N)N)C(=O)N[C@@H](CCC(=O)O)C(=O)N[C@@H](C)C(=O)N[C@@H](CC(C)C)C(=O)N[C@@H](C)C(=O)N[C@@H](CCC(N)=O)C(=O)N[C@H](C(=O)O)[C@@H](C)O [HDM07] (H-PNVNKIREALAQT-OH; N-terminus and C-terminus assumed),YES
7,CC[C@H](C)[C@H](NC(=O)[C@H](CCCCN)NC(=O)[C@@H](N)CC(N)=O)C(=O)N[C@@H](CCCNC(=N)N)C(=O)N[C@@H](CCC(=O)O)C(=O)N[C@@H](C)C(=O)N[C@@H](CC(C)C)C(=O)N[C@@H](C)C(=O)N[C@@H](CCC(N)=O)C(=O)N[C@H](C(=O)N[C@@H](Cc1c[nH]cn1)C(=O)N[C@@H](CO)C(=O)N[C@@H](C)C(=O)O)[C@@H](C)O [HDM08] (H-NKIREALAQTHSA-OH; N-terminus and C-terminus assumed),YES
8,CC[C@H](C)[C@H](NC(=O)[C@@H](NC(=O)[C@H](C)NC(=O)[C@@H](NC(=O)[C@H](C)NC(=O)[C@H](CO)NC(=O)[C@H](Cc1c[nH]cn1)NC(=O)[C@@H](NC(=O)[C@H](CCC(N)=O)NC(=O)[C@H](C)NC(=O)[C@H](CC(C)C)NC(=O)[C@H](C)NC(=O)[C@H](CCC(=O)O)NC(=O)[C@@H](N)CCCNC(=N)N)[C@@H](C)O)[C@@H](C)CC)C(C)C)C(=O)O [HDM09A] (H-REALAQTHSAIAVI-OH; N-terminus and C-terminus assumed),YES
9,CC[C@H](C)[C@H](N)C(=O)NCC(=O)N[C@H](C(=O)N[C@@H](CCCCN)C(=O)N[C@@H](CC(=O)O)C(=O)N[C@@H](CC(C)C)C(=O)N[C@@H](CC(=O)O)C(=O)N[C@@H](C)C(=O)N[C@@H](Cc1ccccc1)C(=O)N[C@@H](CCCNC(=N)N)C(=O)N[C@@H](Cc1c[nH]cn1)C(=O)N[C@@H](Cc1ccc(O)cc1)C(=O)N[C@@H](CC(=O)O)C(=O)O)[C@@H](C)CC [HDM11] (H-IGIKDLDAFRHYD-OH; N-terminus and C-terminus assumed),YES
10,CC(C)C[C@H](NC(=O)[C@H](CC(=O)O)NC(=O)[C@@H](N)CCCCN)C(=O)N[C@@H](CC(=O)O)C(=O)N[C@@H](C)C(=O)N[C@@H](Cc1ccccc1)C(=O)N[C@@H](CCCNC(=N)N)C(=O)N[C@@H](Cc1c[nH]cn1)C(=O)N[C@@H](Cc1ccc(O)cc1)C(=O)N[C@@H](CC(=O)O)C(=O)NCC(=O)N[C@@H](CCCNC(=N)N)C(=O)N[C@H](C(=O)O)[C@@H](C)O [HDM12] (H-KDLDAFRHYDGRT-OH; N-terminus and C-terminus assumed),YES
11,C[C@@H](O)[C@H](NC(=O)[C@H](CC(=O)O)NC(=O)[C@H](Cc1c[nH]c2ccccc12)NC(=O)[C@H](CO)NC(=O)[C@H](CC(N)=O)NC(=O)[C@@H](N)CCCNC(=N)N)C(=O)N[C@@H](CC(N)=O)C(=O)N[C@@H](Cc1c[nH]c2ccccc12)C(=O)NCC(=O)N[C@@H](CC(=O)O)C(=O)N[C@@H](CC(N)=O)C(=O)NCC(=O)N[C@@H](Cc1ccc(O)cc1)C(=O)NCC(=O)O [HDM16A] (H-RNSWDTNWGDNGYG-OH; N-terminus and C-terminus assumed),YES
12,CC(C)C[C@H](NC(=O)[C@H](CC(=O)O)NC(=O)[C@H](CC(C)C)NC(=O)[C@H](CCC(=O)O)NC(=O)[C@H](CO)NC(=O)[C@@H]1CCCN1C(=O)[C@@H](NC(=O)[C@H](CC(N)=O)NC(=O)[C@@H](NC(=O)[C@H](CO)NC(=O)[C@@H](N)CC(N)=O)C(C)C)C(C)C)C(=O)N[C@@H](CCCNC(=N)N)C(=O)N[C@@H](CO)C(=O)N[C@@H](CC(C)C)C(=O)N[C@@H](CCCNC(=N)N)C(=O)N[C@H](C(=O)O)[C@@H](C)O [HDM17] (H-NSVNVPSELDLRSLRT-OH; N-terminus and C-terminus assumed),YES
13,CC[C@H](C)[C@H](NC(=O)[C@H](CCC(=O)O)NC(=O)[C@H](Cc1c[nH]cn1)NC(=O)[C@H](CC(N)=O)NC(=O)[C@H](C)NC(=O)[C@H](CS)NC(=O)[C@H](CC(=O)O)NC(=O)[C@H](CCCCN)NC(=O)[C@@H](NC(=O)[C@H](CC(=O)O)NC(=O)[C@@H](NC(=O)[C@H](CCC(N)=O)NC(=O)[C@@H](N)CC(=O)O)C(C)C)C(C)C)C(=O)N[C@@H](CCCCN)C(=O)N[C@@H](CCCCN)C(=O)O [HDM19] (H-DQVDVKDCANHEIKK-OH; N-terminus and C-terminus assumed),YES
14,CC(C)C[C@H](NC(=O)[C@H](CCC(N)=O)NC(=O)[C@H](Cc1ccccc1)NC(=O)[C@@H]1CCCN1C(=O)[C@@H](N)CCCCN)C(=O)N[C@@H](CCC(=O)O)C(=O)N[C@@H](C)C(=O)N[C@H](C(=O)N[C@@H](Cc1ccccc1)C(=O)N[C@@H](CCC(=O)O)C(=O)N[C@@H](C)C(=O)N[C@@H](CC(N)=O)C(=O)N[C@@H](CCC(N)=O)C(=O)N[C@@H](CC(N)=O)C(=O)N[C@H](C(=O)N[C@@H](CCCCN)C(=O)O)[C@@H](C)O)C(C)C [HDM21A] (H-KPFQLEAVFEANQNTK-OH; N-terminus and C-terminus assumed),YES
15,CC(C)C[C@H](NC(=O)[C@H](CCC(N)=O)NC(=O)[C@H](Cc1ccccc1)NC(=O)[C@@H]1CCCN1C(=O)[C@H](CCCCN)NC(=O)CNC(=O)[C@@H](N)CCCNC(=N)N)C(=O)N[C@@H](CCC(=O)O)C(=O)N[C@@H](C)C(=O)N[C@H](C(=O)N[C@@H](Cc1ccccc1)C(=O)N[C@@H](CCC(=O)O)C(=O)N[C@@H](C)C(=O)N[C@@H](CC(N)=O)C(=O)N[C@@H](CCC(N)=O)C(=O)N[C@@H](CC(N)=O)C(=O)N[C@H](C(=O)O)[C@@H](C)O)C(C)C [HDM21B] (H-RGKPFQLEAVFEANQNT-OH; N-terminus and C-terminus assumed),YES
16,CC(C)C[C@H](NC(=O)[C@H](CCC(N)=O)NC(=O)[C@H](Cc1ccccc1)NC(=O)[C@@H]1CCCN1C(=O)[C@@H](N)CCCCN)C(=O)N[C@@H](CCC(=O)O)C(=O)N[C@@H](C)C(=O)N[C@H](C(=O)N[C@@H](Cc1ccccc1)C(=O)N[C@@H](CCC(=O)O)C(=O)N[C@@H](C)C(=O)N[C@@H](CC(N)=O)C(=O)N[C@@H](CCC(N)=O)C(=O)N[C@@H](CC(N)=O)C(=O)N[C@H](C(=O)O)[C@@H](C)O)C(C)C [HDM21] (H-KPFQLEAVFEANQNT-OH; N-terminus and C-terminus assumed),YES
17,CC(C)[C@H](NC(=O)[C@H](C)NC(=O)[C@@H](N)CCC(=O)O)C(=O)N[C@@H](Cc1ccccc1)C(=O)N[C@@H](CCC(=O)O)C(=O)N[C@@H](C)C(=O)N[C@@H](CC(N)=O)C(=O)N[C@@H](CCC(N)=O)C(=O)N[C@@H](CC(N)=O)C(=O)N[C@H](C(=O)N[C@@H](CCCCN)C(=O)N[C@H](C(=O)N[C@@H](C)C(=O)N[C@@H](CCCCN)C(=O)O)[C@@H](C)O)[C@@H](C)O [HDM22A] (H-EAVFEANQNTKTAK-OH; N-terminus and C-terminus assumed),YES
18,CC[C@H](C)[C@H](NC(=O)[C@H](CCC(=O)O)NC(=O)[C@@H](NC(=O)[C@H](CCCCN)NC(=O)[C@H](C)N)[C@@H](C)CC)C(=O)N[C@@H](CCCCN)C(=O)N[C@@H](C)C(=O)N[C@@H](CO)C(=O)N[C@@H](CC(C)C)C(=O)N[C@@H](CC(=O)O)C(=O)NCC(=O)N[C@@H](CC(C)C)C(=O)N[C@@H](CCC(=O)O)C(=O)O [HDM27] (H-AKIEIKASLDGLE-OH; N-terminus and C-terminus assumed),YES
